Results reported in patent publication US20230372364A1, “METHOD OF TREATING GABA MEDIATED DISORDERS” (Eliem Therapeutics (UK) Ltd, priority 2020, published 2023).
Where “and” joins values, the source holds several entries; their conditions need not be identical. Equal entries are not always repeated. Entries after “also recorded” stand apart in the source; their conditions may differ. Marks after values point to notes of the source that are not given here.

How the values were obtained:
5-HT2A receptor = 5-HT2A receptor (Homo sapiens, UniProt P28223); assay: Activity at the 5-HT2A receptor; conditions: previously shown
From the text: The compound of Formula (I) is believed to have binding affinity at the GABA-gated Cl-channel, the kappa opioid receptor, the 5-HT2A receptor, and the androgen receptor. The compound of Formula (I) has previously shown activity at all 18 GABAA receptor channels and the kappa opioid receptor. The compound of Formula (I) had previously shown no activity at the 5-HT2A receptor. Activity at the androgen receptor is has not yet been well studied.

human subjects [1] = assay: 60 mg once daily for seven days, adverse events in humans (MAD); type: in vivo; conditions: for AE Sleepiness (Nervous system disorders): listed three times in the table; for AE Headache (Nervous system disorders): listed twice in the table
Method: The effects of CV-10155 in relation to administration at different times of the day and states of feeding were analyzed in humans. Subjects were given 60 mg CV-10155 orally once per day for seven consecutive days, and plasma concentrations were measured at various time points. Doses were administered either in the morning to fasted subjects or in the evening to fed subjects.
Adverse events observed following administration of a single dose of CV-10155 in the evening in a fed state are summarized on Table 6.
A comparison of adverse events observed following administration to fasted subjects in the morning and to fed subjects in the evening is provided in Table 7.
The tolerability of the neurosteroids CV-10155, Sage-217, and Praxis-114 in human subjects were compared. The results from subjects that received 45 mg Praxis-114 in the evening, 60 mg Praxis-114 in the evening, 80 mg Praxis-114 in the evening, or 60 mg CV-10155 in the evening are provided in Table 8, and the results form subjects that received 30 mg Sage-217 or 20 mg Sage-217 are provided in Table 9.

[2] = Pharmacokinetic parameters in preclinical rodent studies; type: in vivo; design: Oral BA / ½ life: unit not given here
Method: The pharmacokinetic parameters of CV-10155 in preclinical studies on rodent models of seizure, anxiety, depression and EEG biomarker were analyzed.

[3] = In vitro genetic toxicology studies; conditions: two in vitro studies
[4] = 60 mg once daily for seven days, pharmacokinetics in humans (MAD); conditions: human
[5] = tested on: rodent models of seizure, anxiety, depression and EEG biomarker; assay: Preclinical models of depression, anxiety, seizure and EEG (overall effective dose); type: in vivo
rats [6] = assay: Sleep states by electroencephalogram (EEG) in rats; type: in vivo, rat
Method: The effect of CV-10155 on various sleep states was analyzed in rats. Rats were given various doses of CV-10155, and sleep states were analyzed by electroencephalogram (EEG).

human subjects [7] = assay: Single ascending oral dose safety and tolerability in humans; type: in vivo
[8] = tested on: cardiovascular or respiratory function; assay: In vivo safety pharmacology studies
Method: (§1) The no-observed-adverse-effect-level doses were 7.5/mg/kg/day and 6 mg/kg/day in rats and dogs, respectively.

rats [9] = assay: Repeat-dose toxicity up to four weeks, rats; type: in vivo, rat
Method: as §1
Justification for Dose—Based on the nonclinical toxicology data, there is not an unreasonable risk of adverse effects. Using the FDA guidance “Estimating the Maximum Safe Starting Dose in Initial Clinical Trials for Therapeutics in Adult Healthy Volunteers” (July, 2005), the calculated human equivalent dose would be 1/2 mg/kg/day or 3/24 mg/kg/day, respectively, based on the 28-day rat no-observed-adverse-effect-level dose of 7.5 mg/kg/day or the 28-day dog no-observed-adverse-effect-level dose of 6 mg/kg/day, respectively. For both species the no-observed-adverse-effect-level dose was the highest dose tested. For a 60 kg participant, this would result in a maximum safe starting dose of (human equivalent dose/10) of 7.2 mg/day or 19/6 mg/day. The starting doses in this Phase 1 study are 5 mg, equivalent to […] for a 60 kg participant. […] These anticipated Cmax and AUC values are ˜80- and 50-fold lower, respectively, than that observed at the no-observed-adverse-effect-level dose in dogs.

rodent models = assay: Tolerability in rodent models; type: in vivo; conditions: at efficacious doses
From the text: The compound of Formula (I) is also believed to show antiepileptic activity in maximal electroshock and pentylenetetrazol seizure models, antidepressant properties in the forced swim test, and anxiolytic properties in the elevated plus maze test.

[10] = 60 mg, evening, fed state, N = 9
[11] = 60 mg, morning, fasted state, N = 9
[12] = HV, 60 mg evening dosing, n = 12
[13] = human, 60 mg, evening, fed state, one line per subject and event
[14] = 1 mg/kg (minimal effective dose), male and female subjects
[15] = 3 mg/kg, male and female subjects
[16] = 10 mg/kg, male and female subjects

Chain of 5-HT2A receptor (P28223 whole entry, looked up): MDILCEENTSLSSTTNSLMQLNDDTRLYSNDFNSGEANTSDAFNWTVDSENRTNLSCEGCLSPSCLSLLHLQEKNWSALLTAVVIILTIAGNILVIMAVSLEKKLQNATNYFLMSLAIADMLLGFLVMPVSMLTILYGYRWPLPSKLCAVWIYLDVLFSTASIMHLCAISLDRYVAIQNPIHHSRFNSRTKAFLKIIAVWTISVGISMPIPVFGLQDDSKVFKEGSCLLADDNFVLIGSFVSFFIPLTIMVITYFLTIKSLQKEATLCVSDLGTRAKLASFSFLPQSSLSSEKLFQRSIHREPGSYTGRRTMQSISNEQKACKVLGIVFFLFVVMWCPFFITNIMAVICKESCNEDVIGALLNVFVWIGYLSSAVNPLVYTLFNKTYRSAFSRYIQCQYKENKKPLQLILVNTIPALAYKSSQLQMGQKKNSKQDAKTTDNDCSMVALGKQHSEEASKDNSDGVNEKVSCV

Which “activity at the 5-HT2A receptor” value (5-HT2A receptor) does the source give for `C[C@@]1(O)CC[C@@]2(C)[C@@H](CC[C@@H]3[C@@H]2CC[C@]2(C)[C@@H](C(=O)Cn4cc(C#N)cn4)CC[C@@H]32)C1` [CV-10155, 1-[2-[(3R,5S,8R,9S,10S,13S,14S,17S)-3-hydroxy-3,10,13-trimethyl-1,2,4,5,6,7,8,9,11,12,14,15,16,17-tetradecahydrocyclopenta[a]phenanthren-17-yl]-2-oxoethyl]pyrazole-4-carbonitrile] here?
Its value is “no activity”.

And the “AE Back pain (Musculoskeletal and connective tissue disorders)” value (human subjects [1]; [10])?
The value was 1 #.

What about the “AE Bloating (Gastrointestinal disorders)” value (human subjects [1]; [10]) of the same molecule?
The value was 1 #.

And the “AE Dizziness (Nervous system disorders)” value (human subjects [1]; [10])?
The value was 1 #.

What about the “AE Sleepiness (Nervous system disorders)” value (human subjects [1]; [10]) of the same molecule?
The value was 1 #.

And the “AE Headache (Nervous system disorders)” value (human subjects [1]; [10])?
The value was 2 #.

And the “AE Dizziness (Nervous system disorders)” value (human subjects [1]; [11])?
Its value is 1 #.

What about the “AE Feeling sleepy (Nervous system disorders)” value (human subjects [1]; [11]) of the same molecule?
The value was 1 #.

What about the “AE Feeling tired (General disorders and administration site conditions)” value (human subjects [1]; [11]) of the same molecule?
Its value is 2 #.

And the “AE Tiredness (General disorders and administration site conditions)” value (human subjects [1]; [11])?
Its value is 3 #.

And the “AE Sleepiness (Nervous system disorders)” value (human subjects [1]; [11])?
The value was 9 #.

What about the “AE Headache (Nervous system disorders)” value (human subjects [1]; [11]) of the same molecule?
The value was 2 #.

And the “Dizziness, AEs % of subjects” value (human subjects [1]; [12])?
Its value is 16.7%.

And the “Headache, AEs % of subjects” value (human subjects [1]; [12])?
Its value is 8.3%.

And the “Somnolence, AEs % of subjects” value (human subjects [1]; [12])?
The value was 8.3%.

And the “AE (per subject)” value (human subjects [1]; [13])?
Its value is “Dizziness; also recorded: Headache; also recorded: Somnolence; also recorded: Back pain; also recorded: Abdominal”.

And the AE duration (human subjects [1]; [13])?
Its AE duration is 20.50 h and 13.00 h and 14.50 h and 10.62 h and 39.25 h and 13.25 h and 06.50 h.

What about the “AE onset from dose” value (human subjects [1]; [13]) of the same molecule?
The value was “pre-dose”.

What about the AE severity (human subjects [1]; [13]) of the same molecule?
Its AE severity is “Mild (6×) and Moderate”.

And the “adverse effects that interfere with sleeping” value (human subjects [1]; human, oral administration in the evening to fed subjects)?
Its value is “does not produce adverse effects that interfere with sleeping”.

What about the AUC0-inf [2, 14] of the same molecule?
Its AUC0-inf is 508-1301.

And the Cmax [2, 14]?
Its Cmax is 84.4-128.

What about the “Oral BA” value [2, 14] of the same molecule?
Its value is 58.6-92.4.

And the Tmax [2, 14]?
Its Tmax is 1.5-2^.

What about the ½ life [2, 14] of the same molecule?
The ½ life was 3.66-6.82.

What about the “Oral BA” value ([2]; 2 mg/kg, only male subjects) of the same molecule?
The value was 47.2.

And the Tmax ([2]; 2 mg/kg, only male subjects, in h)?
Its Tmax is 1.7.

And the Cmax ([2]; 2 mg/kg, only male subjects, in ng/mL)?
The Cmax was 224.

And the AUC0-inf ([2]; 2 mg/kg, only male subjects, in ng·h/mL)?
Its AUC0-inf is 1319.

And the AUC0-inf [2, 15]?
Its AUC0-inf is 1378-3899.

And the Cmax [2, 15]?
Its Cmax is 270-440.

And the “Oral BA” value [2, 15]?
The value was 53-92.3.

What about the ½ life [2, 15] of the same molecule?
The ½ life was 2.84-4.96.

And the Tmax ([2]; 3 mg/kg, male and female subjects, in h)?
Its Tmax is 1.25-2.50.

And the “Oral BA” value ([2]; 5 mg/kg, only male subjects)?
Its value is 58.1.

What about the ½ life ([2]; 5 mg/kg, only male subjects) of the same molecule?
The ½ life was 4.19.

And the Tmax ([2]; 5 mg/kg, only male subjects, in h)?
The Tmax was 0.83.

What about the Cmax ([2]; 5 mg/kg, only male subjects, in ng/mL) of the same molecule?
Its Cmax is 499.

What about the AUC0-inf ([2]; 5 mg/kg, only male subjects, in ng·h/mL) of the same molecule?
Its AUC0-inf is 2610.

What about the AUC0-inf [2, 16] of the same molecule?
Its AUC0-inf is 6848-14667.

And the “Oral BA” value [2, 16]?
Its value is 79.7-100.

And the ½ life [2, 16]?
The ½ life was 3.23-4.80.

What about the Tmax ([2]; 10 mg/kg, male and female subjects, in h) of the same molecule?
The Tmax was 1.25-2.25.

What about the Cmax ([2]; 10 mg/kg, male and female subjects, in ng/mL) of the same molecule?
The Cmax was 1165.

And the genetic toxicology findings [3]?
The genetic toxicology findings was “no positive findings”.

And the “ratio of Cmax/trough on day 7” value ([4]; 60 mg daily in the evening in a fed state)?
Its value is 3.47.

And the “ratio of Cmax/trough on day 7” value ([4]; 60 mg daily in the morning in a fasted state)?
Its value is 6.09.

What about the “difference in absorption, morning fasted vs evening fed” value ([4]; 60 mg oral once per day for seven days) of the same molecule?
Its value is “no significant difference”.

And the “Ratio (Cmax/Cmin)” value ([4]; 60 mg, day 7 MAD, morning dosing)?
Its value is 6.07.

What about the AUC0-inf ([4]; plasma, oral, 60 mg) of the same molecule?
Its AUC0-inf is 2900 ng·h/mL.

And the concentration at 7 day ([4]; plasma, oral, 60 mg)?
Its concentration at 7 day is 41.5 ng/mL.

What about the “dose from which robust efficacy was observed” value ([5]; in most models) of the same molecule?
The value was ≥ 3 mg/kg.

And the “minimal effective dose (MED)” value ([5]; preclinical models of depression, anxiety, seizure)?
Its value is 1 mg/kg.

What about the “dose producing an increase in non-REM sleep” value (rats [6]; doses 1, 3, 6, 10 mg/kg) of the same molecule?
The value was ≥ 3 mg/kg.

What about the target engagement (rats [6]; within well-tolerated and efficacious dose ranges) of the same molecule?
Its target engagement is “dose-dependent target engagement”.

And the dose-limiting adverse event (human subjects [7])?
The dose-limiting adverse event was “Ataxia”.

What about the “SAD MTD” value (human subjects [7]; single ascending dose) of the same molecule?
The value was “ETX-155 135 mg SAD MTD”.

And the “adverse events observed at 200 mg” value (human subjects [7]; single oral dose 200 mg, fasted)?
The value was “ataxia, tremor and tachycardia”.

And the “most common adverse events” value (human subjects [7]; single oral dose, mild to moderate, only observed at the highest doses)?
The value was “Dizziness and somnolence”.

What about the dose-limiting adverse events (human subjects [7]; single oral dose, range of 5-135 mg) of the same molecule?
The dose-limiting adverse events was “No dose-limiting adverse events were observed”.

What about the “effect on cardiovascular or respiratory function” value [8] of the same molecule?
The value was “does not affect”.

And the “primary effects observed in repeat-dose toxicity” value (rats [9]; mid and high dose levels, species not specified (rats and dogs program))?
Its value is “ataxia and prostration”.

What about the no-observed-adverse-effect-level dose (rats [9]; rats, 28-day repeat dose) of the same molecule?
The no-observed-adverse-effect-level dose was 7.5 mg/kg/day.

What about the “tolerability in rodent models” value (rodent models) of the same molecule?
The value was “well tolerated”.
